Laboratory results as given in US12527736B2, “Punica granatum extract and its cosmetic uses” (L'OREAL, priority 2019, dated 2026).

Tested on: Normal human fibroblasts
Assay: Peroxidation of lipids test: protection against UVA-induced lipid peroxidation (8-iso-Prostanes release)
Type: cell-based
Conditions: pure ellagic acid at 3 μM for 24 h, then UVA exposure, assayed 2 h30 after exposure
Method: An evaluation of the protection potential against UVA-induced lipid peroxidation of Punica granatum extract according to the invention obtained according to Example 1 was made and compared to the protection against UVA-induced lipid peroxidation of pure ellagic acid. Normal human fibroblasts are treated either with the Punica granatum extract according to the invention at 0.001% or with pure ellagic acid at 3 μM for 24 h and then exposed to a UVA dose inducing no more than 20% cell death. A control was performed consisting in normal human fibroblasts exposed to a UVA dose inducing no more than 20% cell death. 8-iso-Prostanes release is assayed 2 h30 after the exposure.

O=c1oc2c(O)c(O)cc3c(=O)oc4c(O)c(O)cc1c4c23 [Ellagic acid, ellagic acid]
protection against lipid peroxidation (UV-exposed control = 0%): 35% | release of 8-iso-Prostanes (UV-exposed control = 100%): 65%
